IC50 data for three compounds are collected here from ChEMBL document CHEMBL1148201, “Penasulfate A, a new alpha-glucosidase inhibitor from a marine sponge Penares sp” (J Nat Prod, 2004).

Assay [1] is described as follows: Inhibition of Saccharomyces cerevisiae recombinant alpha-glucosidase G0660.
A short description of assay [2]: Inhibition of yeast alpha-glucosidase G7256. On the set-up: species or system Saccharomyces cerevisiae.

For the compound `CCCCCC[C@H](C)CCCCCC[C@H](OS(=O)(=O)[O-])[C@@H](CCCCCCCCCCCCC(=O)N1CCCC[C@@H]1C(=O)OC)OS(=O)(=O)[O-].[Na+].[Na+]` [PENASULFATE A], the IC50 in assay [1] was found to be 3.5 mg/L.

`CCCC[C@H]1CCCCCCCCC[C@H](OS(=O)(=O)[O-])[C@H](OS(=O)(=O)[O-])[C@@H](OS(=O)(=O)[O-])CCCCCCCCCCCCC(=O)N2CCC[C@H]2C(=O)O1.[Na+].[Na+].[Na+]` [PENAROLIDE SULFATE A1] showed an IC50 in assay [2] of 1.2 mg/L.

On to `CCC[C@H]1CCCCCCCCC[C@H](OS(=O)(=O)[O-])[C@H](OS(=O)(=O)[O-])[C@@H](OS(=O)(=O)[O-])CCCCCCCCCCCCCC(=O)N2CCC[C@H]2C(=O)O1.[Na+].[Na+].[Na+]` [PENAROLIDE SULFATE A2], for which, in assay [2], the concentration for half-maximal inhibition (IC50) came to 1.5 mg/L.
